Values quoted from earlier work in PubChem BioAssay AID1259409 (Chemical Carcinogenesis Research Information System (CCRIS), 2018).

System: rodent chemically induced tumor inhibition, incidence and multiplicity
Assay: CCRIS tumor inhibitor studies
Settings: Promoter: NONE USED

C=C(C)[C@H]1CC=C(C)CC1
tumour outcome (control, treated, inhibition, significance) (Carcinogen: 4-(METHYLNITROSAMINO)-1-(3-PYRIDYL)-1-BUTANONE, 64019-91-4, Dose [Inhibitor]: 0, 25 MG LIMONENE OIL 0.2 ML COTTONSEED OIL 1 HR PRIOR TO EACH CARCINOGEN DOSE (STUDY DURATION: 28 WK), Route [Inhibitor]: INTRAGASTRIC, Species: MOUSE, Strain/Sex: STRAIN-A/FEMALE, Target Tissue: Type of Lesion: FORESTOMACH: PAPILLOMA, Dose [Carcinogen]: 0.5 MG IN O.1 ML TRICAPRYLIN 2/WK FOR 8 WK): 17%, 0%, 100%,
tumour outcome (control, treated, inhibition, significance) (Carcinogen: 4-(METHYLNITROSAMINO)-1-(3-PYRIDYL)-1-BUTANONE, 64091-91-4, Dose [Inhibitor]: 0, 0.63% IN DIET FOR 17 WK BEGINNING 1 WK PRIOR TO CARCINOGEN DOSE (STUDY DURATION: 17 WK), Route [Inhibitor]: ORAL, Species: MOUSE, Strain/Sex: STRAIN-A/FEMALE, Target Tissue: Type of Lesion: LUNG: ADENOMA, Dose [Carcinogen]: 10 UMOL IN 0.1 ML SALINE ONCE): 100%, 96%, 4%, not significant
tumour outcome (control, treated, inhibition, significance) (Carcinogen: 4-(METHYLNITROSAMINO)-1-(3-PYRIDYL)-1-BUTANONE, 64091-91-4, Dose [Inhibitor]: 0, 25 MG IN 0.2 ML COTTONSEED OIL 1 HR PRIOR TO EACH CARCINOGEN DOSE (STUDY DURATION: 28 WK), Route [Inhibitor]: INTRAGASTRIC, Species: MOUSE, Strain/Sex: STRAIN-A/FEMALE, Target Tissue: Type of Lesion: FORESTOMACH: PAPILLOMA, Dose [Carcinogen]: 0.5 MG IN 0.1 ML TRICAPRYLIN 2/WK FOR 8 WK): 90%, 0%, 100%, p<0.001
tumour outcome (control, treated, inhibition, significance) (Carcinogen: 4-(METHYLNITROSAMINO)-1-(3-PYRIDYL)-1-BUTANONE, 64091-91-4, Dose [Inhibitor]: O, 25 MG LIMONENE FROM LEMON OIL IN 0.2 ML COTTONSEED OIL 1 HR PRIOR TO EACH CARCINOGEN DOSE (STUDY DURATION: 28 WK), Route [Inhibitor]: INTRAGASTRIC, Species: MOUSE, Strain/Sex: STRAIN-A/FEMALE, Target Tissue: Type of Lesion: FORESTOMACH: PAPILLOMA, Dose [Carcinogen]: 0.5 MG IN OIL ML TRICAPRYLIN 2/WK FOR 8 WK): 17%, 0%, 100%, not calculated
tumour outcome (control, treated, inhibition, significance) (Carcinogen: 7,12-DIMETHYLBENZ[A]ANTHRACENE, 57-97-6, Dose [Inhibitor]: 0, 1% IN DIET FOR 3 WK BEGINNING 2 WK PRIOR TO CARCINOGEN DOSE (STUDY DURATION: 20 WK), Route [Inhibitor]: ORAL, Species: RAT, Strain/Sex: WISTAR/FEMALE, Target Tissue: Type of Lesion: MAMMARY GLAND: CARCINOMA, Dose [Carcinogen]: 50 MG/KG IN SESAME OIL ONCE): 98%, 96%, 2%, not significant
tumour outcome (control, treated, inhibition, significance) (Carcinogen: 7,12-DIMETHYLBENZ[A]ANTHRACENE, 57-97-6, Dose [Inhibitor]: 0, 5% IN DIET BEGINNING POST CARCINOGEN TREATMENT AND CONTINUING FOR 25 WK (STUDY DURATION: 25 WK), Route [Inhibitor]: ORAL, Species: RAT, Strain/Sex: SPRAGUE-DAWLEY/FEMALE, Target Tissue: Type of Lesion: MAMMARY GLAND: TUMOR, Dose [Carcinogen]: 65 MG/KG IN SESAME OIL ONCE): 100%, 97%, 3%, not significant
tumour outcome (control, treated, inhibition, significance) (Carcinogen: 7,12-DIMETHYLBENZ[A]ANTHRACENE, 57-97-6, Dose [Inhibitor]: 0, 5% IN DIET FOR 1 WK PRIOR TO AND 1 WK POST CARCINOGEN TREATMENT (STUDY DURATION: 25 WK), Route [Inhibitor]: ORAL, Species: RAT, Strain/Sex: SPRAGUE-DAWLEY/FEMALE, Target Tissue: Type of Lesion: MAMMARY GLAND: TUMOR, Dose [Carcinogen]: 65 MG/KG IN SESAME OIL ONCE): 100%, 88%, 12%, not significant
tumour outcome (control, treated, inhibition, significance) (Carcinogen: 7,12-DIMETHYLBENZ[A]ANTHRACENE, 57-97-6, Dose [Inhibitor]: 0, 36 MMOL/KG IN DIET FOR 24 WK BEGINNING 2 WK PRIOR TO CARCINOGEN DOSE (STUDY DURATION: 24 WK), Route [Inhibitor]: ORAL, Species: RAT, Strain/Sex: SPRAGUE-DAWLEY/FEMALE, Target Tissue: Type of Lesion: MAMMARY GLAND: TUMOR, Dose [Carcinogen]: 65 MG/KG BW ONCE): 91%, 75%, 18%, not significant
tumour outcome (control, treated, inhibition, significance) (Carcinogen: BENZO[A]PYRENE, 50-32-8, Dose [Inhibitor]: 10 MG IN 0.1 ML ACETONE 3/WK ADMINISTERED SIMULTANEOUSLY WITH CARCINOGEN FOR DURATION OF STUDY (STUDY DURATION: 440 D), Route [Inhibitor]: DERMAL, Species: MOUSE, Strain/Sex: ICR/FEMALE, Target Tissue: Type of Lesion: SKIN: PAPILLOMA, Dose [Carcinogen]: 5 UG IN 0.1 ML ACETONE 3/WK FOR DURATION OF STUDY): 16/50 (32%), 13/50 (26%), 19%, not calculated
tumour outcome (control, treated, inhibition, significance) (Carcinogen: BENZO[A]PYRENE, 50-32-8, Dose [Inhibitor]: 10 MG IN 0.1 ML ACETONE 3/WK ADMINISTERED SIMULTANEOUSLY WITH CARCINOGEN FOR DURATION OF STUDY (STUDY DURATION: 440 D), Route [Inhibitor]: DERMAL, Species: MOUSE, Strain/Sex: ICR/FEMALE, Target Tissue: Type of Lesion: SKIN: SQUAMOUS CARCINOMA, Dose [Carcinogen]: 5 UG IN 0.1 ML ACETONE 3/WK FOR DURATION OF STUDY): 12/50 (24%), 4/50 (8%), 67%, not calculated
tumour outcome (control, treated, inhibition, significance) (Carcinogen: DIETHYLNITROSAMINE, 55-18-5, N-METHYL-N-NITROSOUREA, 684-93-5, N-BUTYL-N-(4-HYDROXYBUTYL)NITROSAMINE, 3817-11-6, 1, Carcinogen: DIETHYLNITROSAMINE, 55-18-5, N-METHYL-N-NITROSOUREA, 684-93-5, N-BUTYL-N-(4-HYDROXYBUTYL)NITROSAMINE, 3817-11-6, 1, Dose [Inhibitor]: 0, 0.5% IN DIET FOR 24 WK BEGINNING POST CARCINOGEN TREATMENT (STUDY DURATION: 28 WK), Route [Inhibitor]: ORAL, Species: RAT, Strain/Sex: F344/MALE, Target Tissue: Type of Lesion: KIDNEY: ADENOMA, Dose [Carcinogen]: 100 MG/KG DEN IP ONCE, 20 MG/KG MNU IP 2/WK FOR FIRST 2 WK, 0.05% BBN IN DRINKING WATER DURING FIRST 2 WK, 40 MG/KG D, Dose [Carcinogen]: 100 MG/KG DEN IP ONCE, 20 MG/KG MNU IP 2/WK FOR FIRST 2 WK, 0.05% BBN IN DRINKING WATER DURING FIRST 2 WK, 40 MG/KG D): 4/19 (21%), 6/20 (30%), -43%, not significant
tumour outcome (control, treated, inhibition, significance) (Carcinogen: DIETHYLNITROSAMINE, 55-18-5, N-METHYL-N-NITROSOUREA, 684-93-5, N-BUTYL-N-(4-HYDROXYBUTYL)NITROSAMINE, 3817-11-6, 1, Carcinogen: DIETHYLNITROSAMINE, 55-18-5, N-METHYL-N-NITROSOUREA, 684-93-5, N-BUTYL-N-(4-HYDROXYBUTYL)NITROSAMINE, 3817-11-6, 1, Dose [Inhibitor]: 0, 1% IN DIET FOR 24 WK BEGINNING POST CARCINOGEN TREATMENT (STUDY DURATION: 28 WK), Route [Inhibitor]: ORAL, Species: RAT, Strain/Sex: F344/MALE, Target Tissue: Type of Lesion: KIDNEY: ADENOMA, Dose [Carcinogen]: 100 MG/KG DEN IP ONCE, 20 MG/KG MNU IP 2/WK FOR FIRST 2 WK, 0.05% BBN IN DRINKING WATER DURING FIRST 2 WK, 40 MG/KG D, Dose [Carcinogen]: 100 MG/KG DEN IP ONCE, 20 MG/KG MNU IP 2/WK FOR FIRST 2 WK, 0.05% BBN IN DRINKING WATER DURING FIRST 2 WK, 40 MG/KG D): 4/19 (21%), 5/19 (26%), -24%, not significant
tumour outcome (control, treated, inhibition, significance) (Carcinogen: DIETHYLNITROSAMINE, 55-18-5, N-METHYL-N-NITROSOUREA, 684-93-5, N-BUTYL-N-(4-HYDROXYBUTYL)NITROSAMINE, 3817-11-6, 1, Carcinogen: DIETHYLNITROSAMINE, 55-18-5, N-METHYL-N-NITROSOUREA, 684-93-5, N-BUTYL-N-(4-HYDROXYBUTYL)NITROSAMINE, 3817-11-6, 1, Dose [Inhibitor]: 0, 2% IN DIET FOR 24 WK BEGINNING POST CARCINOGEN TREATMENT (STUDY DURATION: 28 WK), Route [Inhibitor]: ORAL, Species: RAT, Strain/Sex: F344/MALE, Target Tissue: Type of Lesion: KIDNEY: ADENOMA, Dose [Carcinogen]: 100 MG/KG DEN IP ONCE, 20 MG/KG MNU IP 2/WK FOR FIRST 2 WK, 0.05% BBN IN DRINKING WATER DURING FIRST 2 WK, 40 MG/KG D, Dose [Carcinogen]: 100 MG/KG DEN IP ONCE, 20 MG/KG MNU IP 2/WK FOR FIRST 2 WK, 0.05% BBN IN DRINKING WATER DURING FIRST 2 WK, 40 MG/KG D): 4/19 (21%), 13/19 (68%), -224%, p<0.01
tumour outcome (control, treated, inhibition, significance) (Carcinogen: METHYLCHOLANTHRENE, 56-49-5, Dose [Inhibitor]: 0, 0.5 ML 1/WK FOR 1 YR BEGINNING POST CARCINOGEN TREATMENT (STUDY DURATION: 24 MO), Route [Inhibitor]: GAVAGE, Species: MOUSE, Strain/Sex: SWISS/FEMALE, Target Tissue: Type of Lesion: LUNG: PAPILLARY ADENOMA AND ADENOCARCINOMA, Dose [Carcinogen]: 0.01 MG ON D 1, 7, 14 AND 21 AFTER BIRTH): 7/11 (64%), 8/12 (67%), -5%, not calculated
tumour outcome (control, treated, inhibition, significance) (Carcinogen: METHYLCHOLANTHRENE, 56-49-5, Dose [Inhibitor]: 0, 0.5 ML 1/WK FOR 1 YR BEGINNING POST CARCINOGEN TREATMENT (STUDY DURATION: 24 MO), Route [Inhibitor]: GAVAGE, Species: MOUSE, Strain/Sex: SWISS/MALE, Target Tissue: Type of Lesion: LIVER: HEPATOCELLULAR ADENOMA AND CARCINOMA, Dose [Carcinogen]: 0.01 MG ON D 1, 7, 14 AND 21 AFTER BIRTH): 3/13 (23%), 2/14 (14%), 39%, not calculated
tumour outcome (control, treated, inhibition, significance) (Carcinogen: METHYLCHOLANTHRENE, 56-49-5, Dose [Inhibitor]: 0, 0.5 ML 1/WK FOR 1 YR BEGINNING POST CARCINOGEN TREATMENT (STUDY DURATION: 24 MO), Route [Inhibitor]: GAVAGE, Species: MOUSE, Strain/Sex: SWISS/MALE, Target Tissue: Type of Lesion: LUNG: PAPILLARY ADENOMA AND ADENOCARCINOMA, Dose [Carcinogen]: 0.01 MG ON D 1, 7, 14 AND 21 AFTER BIRTH): 10/13 (77%), 7/14 (50%), 35%, not calculated
